In patent publication US11179348B2, “Combination comprising pterostilbene for the treatment of cancer” (FUNDACIÓN UNIVERSIDAD CATÓLICA DE VALENCIA SAN VICENTE …, priority 2015, dated 2021):

Assays:
Design in all cases: species or system human
MDA-MB-231 cells = assay: GSH levels and glutathione- and oxidative stress-related enzyme activities in MDA-MB-231 cells growing in vivo; settings: MDA-MB-231, in vivo Pter, day 35
Experimental: (§1) To measure enzyme activity, isolated tumor cells were homogenized in 0.1 M phosphate buffer (pH 7.2) at 4° C. GCL and GSS activities were measured as described previously (Obrador, E. et al. Hepatology 35, 74-81 (2002)). GPX (selenium dependent) activity was measured as described by Flohé and Gunzler (Flohe, L. & Gunzler, W. A. Methods Enzymol 105, 114-121 (1984)) using H2O2 as a substrate. GSR activity was determined as described by Akerboom and Sies (Akerboom, T. P. et al, Bull Eur Physiopathol Respir 17 Suppl, 221-227 (1981)). GGT activity was measured as described previously (Obrador, E. et al. Hepatology 35, 74-81 (2002)). GST activity was measured using an assay kit from Sigma. TXNRD activity, defined by the concentration of sodium-lipoate (disulfide) reduced to dehydrolipoate (dithiol) per milligram protein, was measured as previously described (Javvadi, P. et al. Cancer Res 70, 1941-1950 (2010)). SOD activity was measured as described by Flohé and Otting (Flohe, L. & Otting, F. Methods Enzymol 105, 93-104 (1984).) using 2 mM cyanide in the assay medium to distinguish mangano-type enzyme (SOD2) from the cuprozinc type (SOD1). CAT activity was analyzed as described by Aebi (Aebi, H. Methods Enzymol 105, 121-126 (1984)). NOX activity was measured by chemiluminescence following the methodology of Wind et al. (Wind, S. et al. Comparative pharmacology of chemically distinct NADPH oxidase inhibitors. Br J Pharmacol 161, 885-898 (2010)). Protein concentration was determined with the Pierce BCA protein assay (Fisher Scientific, Waltham, Mass.).
(§2) GSH, GSSG, NADP^+ and NADPH Determination.
(§3) GSH and GSSG were determined, following procedures previously described (Obrador, E. et al. PLoS One 9, e96466 (2014)), by LC/MS using the same equipment described above for pterostilbene determination. Cell processing was performed according to published methodology, where rapid N-ethylmaleimide derivatization was used to prevent GSH auto-oxidation (Asensi, M. et al. Anal Biochem 217, 323-328 (1994)). NADP^+ and NADPH were quantitated using an assay kit from Sigma (St. Louis, Mo.).
(§4) Isolation of Tumor Cells from Mouse Xenografts Using Enzymatic Digestion and a double Ficoll gradient.
(§5) To maximize the amount of isolated cells, avoiding the use of RFP-transfected cells and subsequent laser microdissection, an alternative methodology was set up. To maximize cell yield and viability the following combination of enzymes was used: collagenase III (200 U/ml; Sigma-Aldrich), DNase I (200 U/ml; Sigma-Aldrich) and trypsin (5 mg/ml; Invitrogen), and a non-enzymatic dissociation buffer (NEDB, Invitrogen). Briefly, mice were killed, and tumors were removed (avoiding skin, muscle and fat) into cold culture media and processed immediately. The tumors were minced into 1-3 mm fragments, which were then incubated with the dissociation solution (see above) for 30 min at 37° C. The tumor fragments were mixed up and down every 10 min using a […] micropipette with a tip cut to a diameter adapted to tissue fragment size. After each incubation period, the fragments were filtered through a […] nylon mesh cell strainer (BD Biosciences, San Diego, Calif., USA). The released cells were centrifuged at 1200 r.p.m. for 2 min and stored in cold CO2-independent medium with 30% FCS at […]. Fresh dissociation solution was added to the remaining tissue fragments for 30 min. Dissociation was stopped when no additional cells were released. The fragments were pushed through a sieve and all cells from all incubation periods were pooled and counted.
(§6) The dissociated cells were layered onto a double Ficoll gradient (Histopaque; Sigma-Aldrich; densities 1.077 and 1.119) and spun at 700 g for 30 min at room temperature. Cells removed from both interfaces were pooled and washed two times in CO2-independent medium and stored at 4° C. Debris and red blood cell elimination was improved with the dual-density gradient. […]

MelJuso melanoma cells = assay: Nrf2- and redox state-related enzyme activities and metabolites in MelJuso cells growing in vivo; settings: in vivo +Pter, day 35
Experimental: Transfection of the Red Fluorescence Protein.
First the pDsRed-2 vector (Clontech Laboratories Inc., Palo Alto, Calif.) was used, as previously described for A375 melanoma cells (Mena, S. et al. J Transl Med 10, 8 (2012)), to engineer A2058, MeWo and MelJuso melanoma clones stably expressing the RFP. Isolation of A2058-RFP, MeWo-RFP or MelJuso-RFP cells from the growing xenografts was performed by laser microdissection and high-performance cell sorting as previously described in detail (Mena, S. et al. J Transl Med 10, 8 (2012)).
as §1
Measurement of H2O2 and O2^⋅−.
Quantitative measurement of H2O2 and flow cytometry determination of O2^⋅− generation were performed as previously described (Benlloch, M. et al. J Biol Chem 281, 69-79 (2006)).
as §2, §3

A549 cells = assay: GSH levels and glutathione- and oxidative stress-related enzyme activities in A549 cells growing in vivo; settings: A549, in vivo Pter, day 35
Experimental: as §1, §2, §3, §4, §5, §6

SMILES: COc1cc(/C=C/c2ccc(O)cc2)cc(OC)c1 [Pter, trans-3,5-dimethoxy-4′-hydroxystilbene]
- CAT (MDA-MB-231 cells): 0.6 ± 0.2 mU/10^6 cells
- GCL (MDA-MB-231 cells): 66 ± 18 mU/10^6 cells
- GSH (MDA-MB-231 cells): 11.5 ± 2.0 nmol/10^6 cells
- GSS (MDA-MB-231 cells): 7.7 ± 1.2 mU/10^6 cells
- GSSG (MDA-MB-231 cells): 0.2 ± 0.05 nmol/10^6 cells
- SOD1 (MDA-MB-231 cells): 0.3 ± 0.08 U/10^6 cells
- SOD2 (MDA-MB-231 cells): 0.03 ± 0.01 U/10^6 cells
- CAT (MelJuso melanoma cells): 1.1 ± 0.3 mU/10^6 cells
- G6PDH (MelJuso melanoma cells): 366 ± 63 mU/10^6 cells
- GCL (MelJuso melanoma cells): 49 ± 12 mU/10^6 cells
- GGT (MelJuso melanoma cells): 15.9 ± 3.5 mU/10^6 cells
- GPX (MelJuso melanoma cells): 2.1 ± 0.5 mU/10^6 cells
- GSH (MelJuso melanoma cells): 10.8 ± 2.9 nmol/10^6 cells
- GSH/GSSG (MelJuso melanoma cells): 108 ± 17
- GSR (MelJuso melanoma cells): 5.1 ± 1.0 mU/10^6 cells
- GSS (MelJuso melanoma cells): 7.8 ± 1.5 mU/10^6 cells
- GSSG (MelJuso melanoma cells): 0.1 ± 0.04 nmol/10^6 cells
- GST (MelJuso melanoma cells): 4.7 ± 1.3 mU/10^6 cells
- H2O2 (MelJuso melanoma cells): 0.8 ± 0.2 nmol/10^6 cells × min
- IDH (MelJuso melanoma cells): 1.5 ± 0.4 U/10^6 cells
- ME (MelJuso melanoma cells): 25 ± 7 mU/10^6 cells
- NADPH (MelJuso melanoma cells): 0.05 ± 0.02 nmol/mg prot
- NADPH/NADP^+ (MelJuso melanoma cells): 1.7 ± 0.3
- NADP^+ (MelJuso melanoma cells): 0.03 ± 0.01 nmol/mg prot
- NOX (MelJuso melanoma cells): 142 ± 37 R.L.U./10^6 cells
- O2^− (MelJuso melanoma cells): 5.0 ± 1.3 ΔFL1, a.u.
- SOD1 (MelJuso melanoma cells): 0.4 ± 0.2 U/10^6 cells
- SOD2 (MelJuso melanoma cells): 0.1 ± 0.05 U/10^6 cells
- TXN (MelJuso melanoma cells): 0.3 ± 0.1 μg/10^6 cells
- TXNRD (MelJuso melanoma cells): 0.6 ± 0.1 U/10^6 cells
- CAT (A549 cells): 0.3 ± 0.01 mU/10^6 cells
- GCL (A549 cells): 39 ± 16 mU/10^6 cells
- GSH (A549 cells): 4.7 ± 1.5 nmol/10^6 cells
- GSS (A549 cells): 3.9 ± 1.0 mU/10^6 cells
- GSSG (A549 cells): 0.2 ± 0.07 nmol/10^6 cells
- SOD1 (A549 cells): 0.5 ± 0.1 U/10^6 cells
- SOD2 (A549 cells): 0.04 ± 0.01 U/10^6 cells
